The values that follow are results of earlier work, collected in US8697862B2, “Synthesis of galactoside inhibitors” (Galecto Biotech AB, priority 2008, dated 2014).

Each structure is given as a SMILES string.

The subject of this data set is galectins.

With `O=C[C@H](O)[C@@H](O)[C@@H](O)[C@H](O)CO` [D-galactose], the “affinity, times lower than lactose” value (relative to lactose) is 50-100 times.

A word on the Kd: it is the equilibrium constant for the complex coming apart. `OC[C@H]1O[C@@H](O[C@H]2[C@H](O)[C@@H](O)C(O)O[C@@H]2CO)[C@H](O)[C@@H](O)[C@H]1O` (some centres unmarked) [lactose]: the Kd (all galectins) is 500 to 1000 µM.
